For eleven compounds, GI50 and TGI results are on record in PubChem BioAssay (NCI).

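Assay format: 96-well plates, 48-hour exposure. GI50 = concentration required for 50% inhibition of growth. TGI: concentration producing complete growth inhibition.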

Some test systems named below: OVCAR-8 ovarian; SNB-19 CNS; RPMI-8226 leukemia; UACC-257 melanoma; PC-3 prostate; CCRF-CEM leukemia; OVCAR-4 ovarian; M14 melanoma; NCI-H23 lung; OVCAR-3 ovarian.
Common to all, as to test: growth of human tumour cells (NCI), 48 h

As for `CC(C)(C)c1cc(C[P+](c2ccccc2)(c2ccccc2)c2ccccc2)cc(C(C)(C)C)c1O`, the GI50 with OVCAR-8 ovarian was 0.386 µM; with SNB-19 CNS, 0.354 µM; in the experiment on RPMI-8226 leukemia it was 0.178 µM; with UACC-257 melanoma, 0.227 µM; with PC-3 prostate, 0.278 µM; with CCRF-CEM leukemia, 0.545 µM. For the same compound, the GI50 in the experiment with OVCAR-4 ovarian is 0.337 µM; with M14 melanoma, 0.398 µM; with NCI-H23 lung it was 0.365 µM; in the experiment on OVCAR-3 ovarian it was 0.359 µM. The TGI in the experiment on OVCAR-8 ovarian was found to be 5.56 µM; with SNB-19 CNS it was 13.8 µM; with RPMI-8226 leukemia, 0.627 µM; in the experiment on UACC-257 melanoma, 0.684 µM; in the experiment on PC-3 prostate, 1.91 µM; in the experiment on CCRF-CEM leukemia, 5.33 µM. For the same compound, the TGI was 9.16 µM in the experiment on OVCAR-4 ovarian, 3.53 µM in the experiment on M14 melanoma, 8.21 µM in the experiment with NCI-H23 lung and 10.2 µM with OVCAR-3 ovarian.
On to `O=C(Nc1ccc(I)cc1F)c1cc(Br)ccc1O`, for which the GI50 with OVCAR-8 ovarian was 0.83 µM; with SNB-19 CNS, 0.41 µM; in the experiment with RPMI-8226 leukemia, 0.321 µM; with UACC-257 melanoma it was 0.707 µM; in the experiment with PC-3 prostate, 1.77 µM; in the experiment on CCRF-CEM leukemia, 1.01 µM. In addition, the GI50 in the experiment with OVCAR-4 ovarian is 0.442 µM; in the experiment with M14 melanoma, 0.603 µM; in the experiment with NCI-H23 lung it was 0.472 µM; with OVCAR-3 ovarian it was 0.457 µM. Further, the TGI with OVCAR-8 ovarian is above 24.2 µM; in the experiment on SNB-19 CNS it was above 100 µM; in the experiment with RPMI-8226 leukemia it was 1.63 µM; in the experiment on UACC-257 melanoma it was 4.29 µM; in the experiment on PC-3 prostate it was 7.13 µM; in the experiment on CCRF-CEM leukemia, 19.5 µM. Further, the TGI in the experiment on OVCAR-4 ovarian is above 23.1 µM; in the experiment on M14 melanoma, 4.49 µM; in the experiment on NCI-H23 lung it was 3.34 µM; with OVCAR-3 ovarian, 11.3 µM.
Turning to `COc1cc(CSc2nc3ccc(Cl)cc3c(=O)n2Cc2ccccc2)cc(OC)c1OC`, the GI50 is 5.18 µM in the experiment on OVCAR-8 ovarian; 5.46 µM with SNB-19 CNS; 4.27 µM in the experiment with RPMI-8226 leukemia; 8.47 µM in the experiment with UACC-257 melanoma; 3.48 µM in the experiment on PC-3 prostate; 3.6 µM with CCRF-CEM leukemia. Moreover, the GI50 in the experiment on OVCAR-4 ovarian is 4.99 µM; in the experiment with M14 melanoma, 4.26 µM; in the experiment on NCI-H23 lung, 8.48 µM; in the experiment on OVCAR-3 ovarian, 3.2 µM. Also, the TGI in the experiment with OVCAR-8 ovarian, with SNB-19 CNS, in the experiment with RPMI-8226 leukemia, in the experiment with UACC-257 melanoma, in the experiment with PC-3 prostate and with CCRF-CEM leukemia was above 100 µM in each case. For the same compound, the TGI in the experiment on OVCAR-4 ovarian was above 100 µM; with M14 melanoma, above 100 µM; with NCI-H23 lung, above 100 µM; in the experiment on OVCAR-3 ovarian, 11.6 µM.
With `COc1ccc(-c2cnc(-c3ccc(OC)cc3)n2-c2cc(OC)c(OC)c(OC)c2)cc1`, the GI50 was 19.7 µM with OVCAR-8 ovarian; 19.8 µM with SNB-19 CNS; 25.7 µM with RPMI-8226 leukemia; 22.9 µM in the experiment with UACC-257 melanoma; 29.4 µM in the experiment with PC-3 prostate; above 100 µM in the experiment on CCRF-CEM leukemia. Moreover, the GI50 with OVCAR-4 ovarian was 33.5 µM; with M14 melanoma, 44.7 µM; in the experiment with NCI-H23 lung it was 28.6 µM; in the experiment with OVCAR-3 ovarian, 24.7 µM. Moreover, the TGI in the experiment on OVCAR-8 ovarian was 50.7 µM; in the experiment with SNB-19 CNS it was 60.5 µM; with RPMI-8226 leukemia, above 100 µM; with UACC-257 melanoma, 85.9 µM; in the experiment on PC-3 prostate, above 100 µM; in the experiment on CCRF-CEM leukemia it was above 100 µM. Moreover, the TGI with OVCAR-4 ovarian was 58.3 µM; in the experiment on M14 melanoma, above 100 µM; in the experiment with NCI-H23 lung it was above 100 µM; in the experiment with OVCAR-3 ovarian, 65 µM.
Take `COc1ccc(C2c3ccc4ccccc4c3Oc3ncn(CCCn4ccnc4)c(=N)c32)cc1OC` (stereo not given): the GI50 is 3.16 µM in the experiment on OVCAR-8 ovarian; 11.2 µM with SNB-19 CNS; 2.81 µM in the experiment with RPMI-8226 leukemia; 3.07 µM in the experiment on UACC-257 melanoma; 3.23 µM in the experiment with PC-3 prostate; 2.52 µM with CCRF-CEM leukemia. Also, the GI50 in the experiment on OVCAR-4 ovarian was 9.65 µM; in the experiment on M14 melanoma, 1.98 µM; in the experiment on NCI-H23 lung it was 6.49 µM; in the experiment on OVCAR-3 ovarian it was 3.44 µM. For the same compound, the TGI was found to be 11.6 µM with OVCAR-8 ovarian; 26.7 µM in the experiment on SNB-19 CNS; 8.58 µM in the experiment on RPMI-8226 leukemia; 11.4 µM with UACC-257 melanoma; 12.9 µM in the experiment with PC-3 prostate; 6.9 µM with CCRF-CEM leukemia. In addition, the TGI in the experiment with OVCAR-4 ovarian is 26.4 µM; in the experiment with M14 melanoma, 3.83 µM; with NCI-H23 lung it was 22.4 µM; with OVCAR-3 ovarian it was 11 µM.
`COc1ccc(OC)c(N2CC(O)=C(c3nc4ccccc4s3)C2=N)c1`: the GI50 with OVCAR-8 ovarian is 98.7 µM; in the experiment with SNB-19 CNS, above 100 µM; in the experiment with RPMI-8226 leukemia, 35.7 µM; with UACC-257 melanoma, above 100 µM; in the experiment on PC-3 prostate, 52.5 µM; in the experiment with CCRF-CEM leukemia, 0.541 µM. The GI50 is 45.6 µM in the experiment with OVCAR-4 ovarian, above 100 µM in the experiment with M14 melanoma, above 100 µM with NCI-H23 lung and 74.1 µM in the experiment on OVCAR-3 ovarian. Further, the TGI in the experiment with OVCAR-8 ovarian, in the experiment on SNB-19 CNS, with RPMI-8226 leukemia, in the experiment on UACC-257 melanoma, with PC-3 prostate and in the experiment on CCRF-CEM leukemia was above 100 µM throughout. Moreover, the TGI with OVCAR-4 ovarian, in the experiment with M14 melanoma, in the experiment with NCI-H23 lung and in the experiment with OVCAR-3 ovarian was above 100 µM each time.
As for `COc1cc(OC)c(C(=O)/C=C/c2ccc(C#N)cc2)c(OC)c1`, the GI50 in the experiment on OVCAR-8 ovarian was 1.98 µM; in the experiment with SNB-19 CNS it was 1.84 µM; in the experiment on RPMI-8226 leukemia, 1.29 µM; with UACC-257 melanoma, 3.35 µM; in the experiment on PC-3 prostate, 1.72 µM; with CCRF-CEM leukemia, 1.37 µM. Also, the GI50 in the experiment with OVCAR-4 ovarian is 1.63 µM; with M14 melanoma, 1.07 µM; in the experiment with NCI-H23 lung it was 1.57 µM; in the experiment with OVCAR-3 ovarian it was 1.77 µM. For the same compound, the TGI in the experiment on OVCAR-8 ovarian was above 50 µM; with SNB-19 CNS, 6.87 µM; with RPMI-8226 leukemia, 4.92 µM; in the experiment with UACC-257 melanoma it was 42.2 µM; with PC-3 prostate it was 6.87 µM; with CCRF-CEM leukemia, 15 µM. For the same compound, the TGI with OVCAR-4 ovarian was above 50 µM; in the experiment on M14 melanoma it was 3.15 µM; in the experiment with NCI-H23 lung, 11.6 µM; in the experiment on OVCAR-3 ovarian it was 7.93 µM.
Turning to `O=C1CN=C(c2ccc[nH]2)c2cc(Cl)ccc2N1`, the GI50 in the experiment with OVCAR-8 ovarian was above 100 µM; in the experiment on SNB-19 CNS it was above 100 µM; in the experiment with RPMI-8226 leukemia, 3.83 µM; in the experiment on UACC-257 melanoma it was above 100 µM; with PC-3 prostate it was 93.4 µM; in the experiment with CCRF-CEM leukemia it was 30.6 µM. Moreover, the GI50 with OVCAR-4 ovarian is above 100 µM; in the experiment on M14 melanoma it was above 100 µM; in the experiment with NCI-H23 lung, 18.6 µM; with OVCAR-3 ovarian, above 100 µM. The TGI in the experiment with OVCAR-8 ovarian, in the experiment on SNB-19 CNS, in the experiment with RPMI-8226 leukemia, in the experiment on UACC-257 melanoma, in the experiment on PC-3 prostate and with CCRF-CEM leukemia was above 100 µM each time. The TGI in the experiment on OVCAR-4 ovarian, in the experiment with M14 melanoma, in the experiment on NCI-H23 lung and with OVCAR-3 ovarian was above 100 µM each time.
On to `CC1(C)C(=O)/C=C\C(=O)C(C)(C)C2=CC=C(O2)C(C)(C)C(=O)C(Br)C(Br)C(=O)C(C)(C)C2=CC=C1O2` (stereo not given), for which the TGI in the experiment on OVCAR-8 ovarian is 40.1 µM; in the experiment on SNB-19 CNS, above 100 µM; in the experiment with RPMI-8226 leukemia, 9.56 µM; in the experiment on UACC-257 melanoma, above 100 µM; with PC-3 prostate, above 100 µM; with CCRF-CEM leukemia, 11.2 µM. The TGI with OVCAR-4 ovarian is above 100 µM; in the experiment on M14 melanoma it was above 87 µM; in the experiment on NCI-H23 lung, above 100 µM; with OVCAR-3 ovarian, 68.9 µM.
`COc1cccc(/C=N\NC(=O)c2ccncc2)c1O`: the GI50 with OVCAR-8 ovarian is 4.54 µM; in the experiment on SNB-19 CNS, 6.72 µM; with RPMI-8226 leukemia, 5.48 µM; with UACC-257 melanoma it was 5 µM; in the experiment on PC-3 prostate, 8.01 µM; in the experiment with CCRF-CEM leukemia, 1.86 µM. Moreover, the GI50 is 2.43 µM with OVCAR-4 ovarian, 4.68 µM in the experiment with M14 melanoma, 5.28 µM in the experiment with NCI-H23 lung and 4.61 µM with OVCAR-3 ovarian. In addition, the TGI in the experiment with OVCAR-8 ovarian, in the experiment on SNB-19 CNS, in the experiment on RPMI-8226 leukemia, in the experiment on UACC-257 melanoma, with PC-3 prostate and with CCRF-CEM leukemia was above 100 µM throughout. The TGI in the experiment on OVCAR-4 ovarian, with M14 melanoma, in the experiment with NCI-H23 lung and in the experiment with OVCAR-3 ovarian was above 100 µM each time.
Turning to `Cc1nnn(C)c1-c1cnc2c3ccc(C(C)(C)O)cc3n([C@H](c3ccccc3)C3CCOCC3)c2c1`, the GI50 with OVCAR-8 ovarian was 0.0652 µM; in the experiment on SNB-19 CNS, 0.0395 µM; in the experiment on RPMI-8226 leukemia, below 0.01 µM; with UACC-257 melanoma it was below 0.0132 µM; with PC-3 prostate, 0.765 µM; in the experiment on CCRF-CEM leukemia, 0.0663 µM. The GI50 with OVCAR-4 ovarian was 0.033 µM; in the experiment on M14 melanoma, below 0.01 µM; in the experiment with NCI-H23 lung it was 0.158 µM; with OVCAR-3 ovarian, 0.0271 µM. Further, the TGI in the experiment with OVCAR-8 ovarian is 31.6 µM; with SNB-19 CNS, above 100 µM; in the experiment on RPMI-8226 leukemia, 27.9 µM; with UACC-257 melanoma, 31.3 µM; in the experiment on PC-3 prostate, above 100 µM; in the experiment with CCRF-CEM leukemia, above 100 µM. The TGI is above 100 µM in the experiment on OVCAR-4 ovarian, 30.9 µM in the experiment with M14 melanoma, 34.1 µM in the experiment on NCI-H23 lung and 14.8 µM in the experiment on OVCAR-3 ovarian.
